In PubChem BioAssay AID1918943 (Molecular Pharmacology Branch, DTP, NCI, 2023):

Tested on: 855422-203-R-J1-PDC complex spheroid viability
Assay: Anticancer human tumor 855422-203-R-J1-PDC patient-derived bladder carcinoma cell line growth inhibition
Conditions: for IC50: curve of first compound; for viability, T/C: stronger effect = lower value
Method in brief: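 Drug combinations with the LSD1 inhibitor iadademstat tested on tumor cells co-cultured as spheroids with endothelial cells and mesenchymal stem cells. Concentrations descended in half-log increments from clinical Cmax or 10 microM.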

[1] = second compound 0.1 µM, first compound 0.0316 µM
[2] = second compound 0.1 µM, first compound 0.1 µM
[3] = second compound 0.1 µM, first compound 0.316 µM
[4] = second compound 0.1 µM, first compound 1 µM
[5] = second compound 0.1 µM, first compound 3.16 µM
[6] = second compound 0.1 µM, first compound 10 µM
[7] = second compound 0.316 µM, first compound 0.0316 µM
[8] = second compound 0.316 µM, first compound 0.1 µM
[9] = second compound 0.316 µM, first compound 0.316 µM
[10] = second compound 0.316 µM, first compound 1 µM
[11] = second compound 0.316 µM, first compound 3.16 µM
[12] = second compound 0.316 µM, first compound 10 µM
[13] = second compound 1 µM, first compound 0.0316 µM
[14] = second compound 1 µM, first compound 0.1 µM
[15] = second compound 1 µM, first compound 0.316 µM
[16] = second compound 1 µM, first compound 1 µM
[17] = second compound 1 µM, first compound 3.16 µM
[18] = second compound 1 µM, first compound 10 µM
[19] = second compound 3.16 µM, first compound 0.0316 µM
[20] = second compound 3.16 µM, first compound 0.1 µM
[21] = second compound 3.16 µM, first compound 0.316 µM
[22] = second compound 3.16 µM, first compound 1 µM
[23] = second compound 3.16 µM, first compound 3.16 µM
[24] = second compound 3.16 µM, first compound 10 µM
[25] = second compound 10 µM, first compound 0.0316 µM
[26] = second compound 10 µM, first compound 0.1 µM
[27] = second compound 10 µM, first compound 0.316 µM
[28] = second compound 10 µM, first compound 1 µM
[29] = second compound 10 µM, first compound 3.16 µM
[30] = second compound 10 µM, first compound 10 µM
[31] = second compound 0.1 µM, first compound 0.00949 µM
[32] = second compound 0.1 µM, first compound 0.03 µM
[33] = second compound 0.1 µM, first compound 0.0949 µM
[34] = second compound 0.1 µM, first compound 0.3 µM
[35] = second compound 0.316 µM, first compound 0.00949 µM
[36] = second compound 0.316 µM, first compound 0.03 µM
[37] = second compound 0.316 µM, first compound 0.0949 µM
[38] = second compound 0.316 µM, first compound 0.3 µM
[39] = second compound 1 µM, first compound 0.00949 µM
[40] = second compound 1 µM, first compound 0.03 µM
[41] = second compound 1 µM, first compound 0.0949 µM
[42] = second compound 1 µM, first compound 0.3 µM
[43] = second compound 3.16 µM, first compound 0.00949 µM
[44] = second compound 3.16 µM, first compound 0.03 µM
[45] = second compound 3.16 µM, first compound 0.0949 µM
[46] = second compound 3.16 µM, first compound 0.3 µM
[47] = second compound 10 µM, first compound 0.00949 µM
[48] = second compound 10 µM, first compound 0.03 µM
[49] = second compound 10 µM, first compound 0.0949 µM
[50] = second compound 10 µM, first compound 0.3 µM
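Further: drug exposure lasted 7 days starting on day 3 after seeding.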
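Wherever viability, T/C is given: luminescence viability as percent of DMSO vehicle wells = 100%.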

Work on `CC1(C)CCC(CN2CCN(c3ccc(C(=O)NS(=O)(=O)c4ccc(NCC5CCOCC5)c([N+](=O)[O-])c4)c(Oc4cnc5[nH]ccc5c4)c3)CC2)=C(c2ccc(Cl)cc2)C1` + NC1CCC(NC2CC2c2ccccc2)CC1 yielded an IC50 (second compound 0.1 µM) of 6.21 µM, an IC50 (second compound 0.316 µM) of 6.16 µM and an IC50 (second compound 1 µM) of 6.04 µM. The IC50 (second compound 3.16 µM) was 5.85 µM, the IC50 (second compound 10 µM) was 5.53 µM and the viability, T/C [1] was 103%. For the same molecule, the viability, T/C [2] was 94.7%, the viability, T/C [3] was 95.6% and the viability, T/C [4] was 101%. It also gave a viability, T/C [5] of 93.4%, a viability, T/C [6] of 19.2% and a viability, T/C [7] of 96.7%. It also gave a viability, T/C [8] of 95.1%, a viability, T/C [9] of 88.5% and a viability, T/C [10] of 100%. The viability, T/C [11] was 93.9%, the viability, T/C [12] was 18% and the viability, T/C [13] was 94.4%. The viability, T/C [14] was 99.1%, the viability, T/C [15] was 78.7% and the viability, T/C [16] was 93.3%. The viability, T/C [17] was 102%, the viability, T/C [18] was 16.2% and the viability, T/C [19] was 85.4%. For the same molecule, the viability, T/C [20] was 84.3%, the viability, T/C [21] was 109% and the viability, T/C [22] was 101%. The viability, T/C [23] was 86.2%, the viability, T/C [24] was 18.3% and the viability, T/C [25] was 82.3%. For the same molecule, the viability, T/C [26] was 78.4%, the viability, T/C [27] was 92.4% and the viability, T/C [28] was 72.2%. For the same molecule, the viability, T/C [29] was 83.8% and the viability, T/C [30] was 16.2%.

For `CC1COCCN1c1cc(C2(S(C)(=N)=O)CC2)nc(-c2ccnc3[nH]ccc23)n1` (stereo not given) + NC1CCC(NC2CC2c2ccccc2)CC1, the IC50 (second compound 0.1 µM) was 5.47 µM, the IC50 (second compound 0.316 µM) was 6 µM and the IC50 (second compound 1 µM) was 3.14 µM. The IC50 (second compound 3.16 µM) was 2.79 µM, the IC50 (second compound 10 µM) was 2.44 µM and the viability, T/C [1] was 98.1%. It also gave a viability, T/C [2] of 97.4%, a viability, T/C [3] of 104% and a viability, T/C [4] of 93.1%. For the same molecule, the viability, T/C [5] was 57.6%, the viability, T/C [6] was 41.7% and the viability, T/C [7] was 97.4%. The viability, T/C [8] was 101%, the viability, T/C [9] was 102% and the viability, T/C [10] was 92.7%. It also gave a viability, T/C [11] of 60.6%, a viability, T/C [12] of 41.6% and a viability, T/C [13] of 91.1%. The viability, T/C [14] was 93.1%, the viability, T/C [15] was 90.7% and the viability, T/C [16] was 87.7%. It also gave a viability, T/C [17] of 49.8%, a viability, T/C [18] of 45.7% and a viability, T/C [19] of 86.2%. The viability, T/C [20] was 87.9%, the viability, T/C [21] was 93.1% and the viability, T/C [22] was 83.3%. It also gave a viability, T/C [23] of 46%, a viability, T/C [24] of 43.4% and a viability, T/C [25] of 86%. The viability, T/C [26] was 85.5%, the viability, T/C [27] was 89.8% and the viability, T/C [28] was 77.8%. The viability, T/C [29] was 42% and the viability, T/C [30] was 39.2%.

For `CCN(c1cc(-c2ccc(CN3CCOCC3)cc2)cc(C(=O)NCc2c(C)cc(C)[nH]c2=O)c1C)C1CCOCC1` + NC1CCC(NC2CC2c2ccccc2)CC1, the IC50 (second compound 0.1 µM) was over 3 µM, the IC50 (second compound 0.316 µM) was over 3 µM and the IC50 (second compound 1 µM) was over 3 µM. The IC50 (second compound 3.16 µM) was over 3 µM, the IC50 (second compound 10 µM) was over 3 µM and the viability, T/C [31] was 86.3%. The viability, T/C [32] was 103%, the viability, T/C [33] was 87% and the viability, T/C [34] was 86.7%. The viability, T/C (second compound 0.1 µM, first compound 0.949 µM) was 91.4%, the viability, T/C (second compound 0.1 µM, first compound 3 µM) was 82.9% and the viability, T/C [35] was 85.3%. It also gave a viability, T/C [36] of 95.9%, a viability, T/C [37] of 96.2% and a viability, T/C [38] of 91.4%. It also gave a viability, T/C (second compound 0.316 µM, first compound 0.949 µM) of 89.9%, a viability, T/C (second compound 0.316 µM, first compound 3 µM) of 91.1% and a viability, T/C [39] of 92.3%. For the same molecule, the viability, T/C [40] was 92.7%, the viability, T/C [41] was 93.5% and the viability, T/C [42] was 88.3%. For the same molecule, the viability, T/C (second compound 1 µM, first compound 0.949 µM) was 86.3%, the viability, T/C (second compound 1 µM, first compound 3 µM) was 91.8% and the viability, T/C [43] was 91.3%. The viability, T/C [44] was 90.5%, the viability, T/C [45] was 83.3% and the viability, T/C [46] was 87.6%. It also gave a viability, T/C (second compound 3.16 µM, first compound 0.949 µM) of 82%, a viability, T/C (second compound 3.16 µM, first compound 3 µM) of 95.9% and a viability, T/C [47] of 84.1%. For the same molecule, the viability, T/C [48] was 82.6%, the viability, T/C [49] was 79.4% and the viability, T/C [50] was 79.5%. It also gave a viability, T/C (second compound 10 µM, first compound 0.949 µM) of 82.7% and a viability, T/C (second compound 10 µM, first compound 3 µM) of 83.7%.

`Nc1ncn(C2CC(O)C(CO)S2)c(=O)n1` (stereo not given) + NC1CCC(NC2CC2c2ccccc2)CC1 gave an IC50 (second compound 0.1 µM) of over 0.3 µM, an IC50 (second compound 0.316 µM) of over 0.3 µM and an IC50 (second compound 1 µM) of over 0.3 µM. For the same molecule, the IC50 (second compound 3.16 µM) was over 0.3 µM, the IC50 (second compound 10 µM) was over 0.3 µM and the viability, T/C (second compound 0.1 µM, first compound 0.000949 µM) was 99.6%. It also gave a viability, T/C (second compound 0.1 µM, first compound 0.003 µM) of 93.5%, a viability, T/C [31] of 85.8% and a viability, T/C [32] of 90.1%. For the same molecule, the viability, T/C [33] was 93.8%, the viability, T/C [34] was 73% and the viability, T/C (second compound 0.316 µM, first compound 0.000949 µM) was 95.5%. It also gave a viability, T/C (second compound 0.316 µM, first compound 0.003 µM) of 89.3%, a viability, T/C [35] of 89% and a viability, T/C [36] of 89.5%. The viability, T/C [37] was 97.8%, the viability, T/C [38] was 80.1% and the viability, T/C (second compound 1 µM, first compound 0.000949 µM) was 87.1%. It also gave a viability, T/C (second compound 1 µM, first compound 0.003 µM) of 87.9%, a viability, T/C [39] of 86.4% and a viability, T/C [40] of 89.2%. The viability, T/C [41] was 86.6%, the viability, T/C [42] was 78.1% and the viability, T/C (second compound 3.16 µM, first compound 0.000949 µM) was 92.4%. For the same molecule, the viability, T/C (second compound 3.16 µM, first compound 0.003 µM) was 91.7%, the viability, T/C [43] was 84% and the viability, T/C [44] was 92.8%. It also gave a viability, T/C [45] of 87%, a viability, T/C [46] of 73.4% and a viability, T/C (second compound 10 µM, first compound 0.000949 µM) of 89.5%. It also gave a viability, T/C (second compound 10 µM, first compound 0.003 µM) of 81.7%, a viability, T/C [47] of 82.9% and a viability, T/C [48] of 82.7%. For the same molecule, the viability, T/C [49] was 82.1% and the viability, T/C [50] was 74.5%.
